Measurements as given in US20240043859A1, “HERBICIDE-RESISTANT PROTEIN, AND GENE AND USE THEREOF” (QINGDAO KINGAGROOT CHEMICAL COMPOUND CO., LTD., priority 2020, published 2024).
“Also recorded” adds a separate entry of the source.

Experiments:
[1] = system: Arabidopsis thaliana; assay: Herbicide resistance of transgenic Arabidopsis thaliana seedlings on plate medium (root growth); assay type: in vivo; conditions: plate medium: 2,4-D 0.3 μmol; 2,4-DB sodium 0.7 μmol; MCPA 0.1 μmol
Protocol: Expression in Arabidopsis thaliana was regulated by its AtUbi10 Arabidopsis thaliana ubiquitin promoter and the MAS (mannopine synthase) terminator. Hygromycin resistance gene (HygR=hpt) served as the selection marker.
Preparation of Agrobacterium infection solution: An activated Agrobacterium (GV3101) monoclone was picked and inoculated in 30 ml YEP liquid medium [yeast powder 10 g/L, tryptone 10 g/L, NaCl 5 g/L, 25 mg/L Rifampicin and 50 mg/L Kanamycin], shaking-cultured at 200 rmp/min, 28° C. overnight until the OD600 was about 1.0-1.5, then centrifuged at 6000 rmp/min for 10 min to collect the bacteria, and the supernatant was discarded. Arabidopsis thaliana infection solution (sucrose 50 g/L, Silwet L-77 300 μL/L, no need to adjust pH) was used to resuspend the cells to OD600=0.8 for later use.
Genetic transformation of Arabidopsis thaliana by flower dipping: Before transformation of Arabidopsis thaliana plants, attentions were paid to whether the plants were growing well, the inflorescences were abundant, and no stress response occurred. The first transformation was performed when plants were about 20 cm high. Plants could be properly watered if the soil was dry. The grown siliques were cut off with scissors the day before transformation. The inflorescences of the plants to be transformed were soaked in the above-mentioned Agrobacterium solution for 30 seconds to 1 minute, which was stirred gently during the period. And a layer of liquid film should appear on the infiltrated plant. The transformed plants were cultured in a dark environment for 24 hours, and then taken out and grown in a normal light environment. A second transformation could be performed in the same way a week later. […]

[2] = system: maize B104; assay: Herbicide-resistance capacity testing of transgenic maize (spray); assay type: in vivo; conditions: 4.48 kg/ha foliage spray, 14 days / 15 days
Description: 1. Vector construction: the overexpression vector was altered from pCambia3300, containing a Bar resistance gene that can be used as a selection marker for bialaphos (glufosinate). The AAD-like gene, QYD42, SEQ ID NO. 83, was linked to the pCambia3300 at the BamH I restriction site by seamless cloning to construct the transgenic vector pQY2329, of which the expression cassette consisted of a maize ubiquitin-1 promoter, the AAD gene and a Nos terminator, as shown in FIG. 7-1.
2. Genetic transformation of maizes: Maize transformation was carried out by the Agrobacterium-mediated immature embryo transformation method (Jones T, Lowe K, Hoerster G, et al. Maize Transformation Using the Morphogenic Genes Baby Boom and Wuschel2. Methods Mol Biol. 2019; 1864:81-93. Doi: 10.1007/978-1-4939-8778-8 6). The Agrobacterium (EHA105) comprising the pQY2329 overexpression vector was inoculated into YEP liquid medium (containing 25 mg/L Rifampicin and 50 mg/L Kanamycin), and shaking-cultured a t 28° C., 220 rmp/min overnight until the OD600 was about 1.0-1.5, then centrifuged at 6000 rmp/min for 10 min to collect the cells into a 50 ml centrifuge tube (sterilized). After discarding the supernatant, the cells were resuspended using MS infect culture medium (containing 68.5 g/L sucrose, 36 g/L glucose, pH 5.8) to OD550=0.8. […]

## O=C(O)COc1ccc(Cl)cc1Cl [2,4-D, (2,4-dichlorophenoxy)acetic acid, reference compound]
[1]
  Effect of the herbicide on seminal roots of wild-type Col-0: uncapable of growing roots; also recorded: seminal roots are inhibited; also recorded: seminal roots are not able to grow
[2]
  Effect of the herbicide spray on non-transgenic maize B104: apparent phytotoxicity, root nodules, reduced root system and easily-lodging plant; also recorded: stem bases of maize B104 are swollen
